“Also recorded” adds a separate entry of the source. Non-standard residues stand in square brackets, D forms with d. Residues, ends and D or L forms follow the SMILES beside them. *: point of attachment. Sta = CC(C)C[C@H](N)[C@@H](O)CC(=O)O; Isovaleryl = CC(C)CC(=O)*
How the values were obtained:
[1] = tested on: lipofuscin-like material in neurons; settings: chronic inhibition (7+days) by infusion; cited from earlier work
lipofuscin = test: Lipofuscin autofluorescence in fixed brain tissue after intraventricular leupeptin infusion; format: in vivo, mice; settings: 5 mg/mL leupeptin, four weeks, vs vehicle (20 mM HEPES)
tau = test: Western blot analysis of tau in brain of leupeptin-infused mice; format: in vivo
Protocol: (§1) Several studies have recently raised the possibility that abnormal forms of tau is metabolized in lysosomes. […] There are numerous assays for tau known in the art. For example, the processing of tau by immunocytochemistry and Western blot analysis is performed using an antibody that recognizes both phosphorylated and non-phosphorylated forms (Adamec et al., Brain Res. 757:93-101, 1997). Abnormal tau conformation and hyperphosphorylated tau is examined using suitable monoclonal antibodies. (e.g., MC1 (Jicha et al., J. Neurosci. Res. 48:128-132) and AT8 (Innogenetics, Gent, Belgium)). EM analysis can be performed to characterize cytoskeletal changes in neurons (Nixon, Bioessays 20:798-807, 1998). Alternatively, the magnitude of neurodegeneration in the mice can be determined by Nissl stain.

cortical mantle = test: Nissl staining and cortical mantle thickness in PS1M146L/APPswe transgenic and non-transgenic mice infused with leupeptin; format: in vivo
Protocol: as §1
As a second example of the usefulness of inducing lysosomal system dysfunction by protease inhibitor infusion, we treated PS1M146L/APPswe transgenic mice, an established model of AD-like pathology (Duff et al., Nature 383:710-713, 1996). Infusion pumps containing 5 mg/mL leupeptin were implanted into PS1M146L/APPswe transgenic mice at 1 year of age. Animals were sacrificed 4 weeks later.
We confirmed this observation by measuring the thickness of the cortical mantle in these mice (FIG. 15). […] One current limitation of the existing mouse models of AD is their failure to show substantial neuronal atrophy and/or neuronal cell loss, key features of the disease in humans.

Aβ = test: Total Aβ by ELISA after formic acid extraction in PS1M146L/APPswe transgenic mice infused with protease inhibitor; format: in vivo; settings: infusion from 8 to 12 weeks of age
Protocol: We also performed protease inhibitor infusion experiments in PS1M146L/APPswe transgenic mice. Infusion pumps containing either 2 mg/mL pepstatin or 10 mg/mL leupeptin were implanted into PS1M146L/APPswe transgenic mice at 8 weeks of age. Animals were sacrificed at 12 weeks of age, and total Aβ levels were determined by ELISA following formic acid extraction (FIG. 10A). […] Leupeptin treatment, on the other hand, increased total Aβ by 1.8 times when compared to untreated mice. We have additionally measured the activity of Cat D in the brains of untreated, pepstatin-treated, or leupeptin-treated mice (FIG. 10B).
The Aβ sandwich ELISA is generally known to those skilled in the art, with both Aβ ELISA kits (Biosource International, Camavillo, Calif.) and appropriate antibodies (e.g., 4G8, GE10; Seneteck, PLC, Napa, Calif.) available commercially. For the Aβ sandwich ELISA, Nunc-Immuno Plates (Nunc A/S Roskilde, Denmark) were coated overnight at […] using antibodies specific for Aβ40 or Aβ42 in 100 mM bicarbonate buffer, pH 9.6. […] Aβ was detected by incubating for 4 hours at room temperature with an HPR-conjugated anti-Aβ antibody in 20 mM Na phosphate, 2 mM EDTA, 400 mM NaCl, 1.0% BSA. ELISA plates were developed using a color reaction (ABTS Peroxidase Substrate System, Kirkegaard & Perry, Gaithersburg, Md.) and the OD450 read.

Cat D = target: T1, Cat D (Mus musculus, UniProt P18242); test: Cat D activity in brains of PS1M146L/APPswe transgenic mice infused with protease inhibitor; format: in vivo; settings: 2 mg/mL pepstatin or 10 mg/mL leupeptin, vs untreated
T1 construct: from tissue; host or cells: mouse brain (sections and hemi-brain homogenates)
T1 sequence (P18242 65-410): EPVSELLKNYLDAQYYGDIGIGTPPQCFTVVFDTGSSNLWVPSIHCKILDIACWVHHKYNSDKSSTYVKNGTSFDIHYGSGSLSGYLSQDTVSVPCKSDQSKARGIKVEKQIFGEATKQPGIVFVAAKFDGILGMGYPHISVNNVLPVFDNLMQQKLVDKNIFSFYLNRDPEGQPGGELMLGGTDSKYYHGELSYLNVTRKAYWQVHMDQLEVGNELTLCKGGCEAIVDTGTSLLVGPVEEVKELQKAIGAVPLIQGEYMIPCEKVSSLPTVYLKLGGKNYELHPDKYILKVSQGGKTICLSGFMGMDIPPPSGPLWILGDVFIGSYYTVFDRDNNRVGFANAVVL
Protocol: To administer the candidate compounds in the presence or absence of inhibitor(s), eight week old mice are anesthetized with pentobarbital (40-50 mg/kg i.p.) and placed in a stereotaxic apparatus with mouse adapter (David Kopf Instruments, Tujunga, Calif.). After sacrifice, placement of the probe into the lateral ventricle is confirmed and one hemi-brain immersion-fixed and the other hemi-brain homogenized for protease assays. We determine the efficacy of the candidate compound by assaying the activity of proteases in brain homogenates (e.g., Cat B, Cat L, Cat D, and trypsin (Brunk et al., Free Radic. Biol. Med. 19:813-822, 1995; Marotta and Nixon, J. Neurochem. 43:507-516, 1984; Koshikawa et al., Am. J. Pathol. 153:937-944, 1998); see, for example, Cat D shown in FIG. 11F). […] Lipofuscin granules are defined at the EM level as having a single layer of membrane and a bipartite structure consisting of electron lucent lipoid material and electron dense material (Cataldo and Nixon, Ann. N.Y. Acad. Sci. 679: 87-109, 1993).
We also performed protease inhibitor infusion experiments in PS1M146L/APPswe transgenic mice. […] Animals were sacrificed at 12 weeks of age, and total Aβ levels were determined by ELISA following formic acid extraction (FIG. 10A). […] We have additionally measured the activity of Cat D in the brains of untreated, pepstatin-treated, or leupeptin-treated mice (FIG. 10B).

## aprotinin
[1]
  accumulation of lipofuscin-like material in neurons: does not

## CCN(CC)CCCC(C)Nc1ccnc2cc(Cl)ccc12 (stereo not drawn) [chloroquine]
[1]
  accumulation of lipofuscin-like material in neurons: results in accumulation of lipofuscin-like material in neurons

## CC(=O)N[C@@H](CC(C)C)C(=O)N[C@@H](CC(C)C)C(=O)N[C@H](C=O)CCCNC(=N)N [leupeptin]
lipofuscin
  lipofuscin autofluorescence: increase in lipofuscin autofluorescence; also recorded: lipotuscin autofluorescence in sections of leupeptin-treated but not vehicle-treated brains
tau
  lower molecular weight forms of tau (Mr~30-34 kDa) by Western blot: increase in the lower molecular weight forms of tau
Cortical mantle; PS1M146L/APPswe mouse, 5 mg/mL leupeptin, 4 weeks
  reduction of thickness of the cortex: over 20%
Cortical mantle; PSM146L/APPswe mouse, 5 mg/mL leupeptin, 4 weeks, vs non-transgenic littermate also infused with leupeptin
  Nissl staining of cortex: substantial cortical neuronal hypotrophy, chromatolysis and possibly loss of neurons
Cortical mantle; non-transgenic mouse, leupeptin vs vehicle
  thickness of the cortical mantle: small decrease
Aβ; 10 mg/mL leupeptin
  total Aβ increase compared to untreated mice: 1.8 times
Cat D
  activity of Cat D in the brain: increased Cat D activity
[1]
  accumulation of lipofuscin-like material in neurons: results in accumulation of lipofuscin-like material in neurons

## CC(C)CC(=O)N[C@H](C(=O)N[C@H](C(=O)N[C@@H](CC(C)C)[C@@H](O)CC(=O)N[C@@H](C)C(=O)N[C@@H](CC(C)C)[C@@H](O)CC(=O)O)C(C)C)C(C)C [pepstatin] (Isovaleryl-VV[Sta]A[Sta]-OH)
Aβ; 2 mg/mL pepstatin
  total Aβ level relative to untreated mice: reduced to half the level
Cat D
  activity of Cat D in the brain: reduced activity of Cat D

From US6838592B1, “Methods for the identification of compounds for the treatment of alzheimer's disease” (Nathan S. Kline Institute for Psychiatric Research, priority 1999, dated 2005)
